According to Sander's compilation of Henry's law constants (doi:10.1021/es970763v):

experiment: Henry solubility constant Hcp at 298.15 K (mol/(m3 Pa)); details: reference: Welke et al. (1998)

SMILES | Henry solubility constant Hcp
C=CC#N [2-propenenitrile] | 0.031
C=C(C)C1CC=C(C)CC1 (stereo not drawn) [1-methyl-4-(1-methylethenyl)-cyclohexene] | 0.00024
CCOC(C)=O [ethyl ethanoate] | 0.034
C=Cc1ccccc1 [ethenylbenzene] | 0.0025
Cc1ccccc1C [1,2-dimethylbenzene] | 0.0022
CC(C)=O [propanone] | 0.096
c1ccccc1 [benzene] | 0.0016
ClCC1CO1 (stereo not drawn) [(chloromethyl)-oxirane] | 0.29
CC(Cl)CCl (stereo not drawn) [1,2-dichloropropane] | 0.0055
CC#N [ethanenitrile] | 0.34
CC(=O)CC(C)C [4-methyl-2-pentanone] | 0.047
C=CCCl [3-chloro-1-propene] | 0.0037
CCCOC(C)=O [propyl ethanoate] | 0.037
CCC[N+](=O)[O-] [1-nitropropane] | 0.16
Cc1ccccc1 [methylbenzene] | 0.0014
CCCCOC(C)=O [butyl ethanoate] | 0.027
ClCCl [dichloromethane] | 3.7
Clc1ccccc1 [chlorobenzene] | 0.0027
